Values quoted from earlier work, collected in patent US11241426B2, “Aqueous composition for ophthalmic or nasal administration” (NITTO MEDIC CO., LTD., priority 2017, dated 2022).

Target: human H1 receptor (Homo sapiens, UniProt P35367)
Sequence (P35367 whole entry): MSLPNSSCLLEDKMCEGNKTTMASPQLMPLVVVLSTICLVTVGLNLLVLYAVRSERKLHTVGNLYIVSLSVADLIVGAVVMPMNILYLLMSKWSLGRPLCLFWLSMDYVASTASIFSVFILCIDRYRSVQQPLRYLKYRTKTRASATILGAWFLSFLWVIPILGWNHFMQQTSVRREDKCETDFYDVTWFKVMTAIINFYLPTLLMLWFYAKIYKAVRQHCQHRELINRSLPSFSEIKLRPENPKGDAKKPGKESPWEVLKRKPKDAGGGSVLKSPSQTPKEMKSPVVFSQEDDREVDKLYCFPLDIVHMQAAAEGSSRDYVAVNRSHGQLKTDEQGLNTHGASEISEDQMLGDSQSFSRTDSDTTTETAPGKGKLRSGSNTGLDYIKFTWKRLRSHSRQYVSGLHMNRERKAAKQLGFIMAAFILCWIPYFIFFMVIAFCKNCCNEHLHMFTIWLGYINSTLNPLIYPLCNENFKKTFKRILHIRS

affinity for the human H1 receptor, fold higher than that of cetirizine (relative to cetirizine): about 2 fold | affinity for the human H1 receptor, fold higher than that of the S-enantiomer, dextrocetirizine (relative to dextrocetirizine): about 30 fold
SMILES: O=C(O)COCCN1CCN([C@H](c2ccccc2)c2ccc(Cl)cc2)CC1 [Levocetirizine]
